We go through 18 compounds from ChEMBL document CHEMBL1146791, “Synthesis of nitrated indenoisoquinolines as topoisomerase I inhibitors” (2004).

Assay [1] concerns the target T1, DNA topoisomerase 1 (Homo sapiens) (UniProt P11387).
T1 sequence (whole entry): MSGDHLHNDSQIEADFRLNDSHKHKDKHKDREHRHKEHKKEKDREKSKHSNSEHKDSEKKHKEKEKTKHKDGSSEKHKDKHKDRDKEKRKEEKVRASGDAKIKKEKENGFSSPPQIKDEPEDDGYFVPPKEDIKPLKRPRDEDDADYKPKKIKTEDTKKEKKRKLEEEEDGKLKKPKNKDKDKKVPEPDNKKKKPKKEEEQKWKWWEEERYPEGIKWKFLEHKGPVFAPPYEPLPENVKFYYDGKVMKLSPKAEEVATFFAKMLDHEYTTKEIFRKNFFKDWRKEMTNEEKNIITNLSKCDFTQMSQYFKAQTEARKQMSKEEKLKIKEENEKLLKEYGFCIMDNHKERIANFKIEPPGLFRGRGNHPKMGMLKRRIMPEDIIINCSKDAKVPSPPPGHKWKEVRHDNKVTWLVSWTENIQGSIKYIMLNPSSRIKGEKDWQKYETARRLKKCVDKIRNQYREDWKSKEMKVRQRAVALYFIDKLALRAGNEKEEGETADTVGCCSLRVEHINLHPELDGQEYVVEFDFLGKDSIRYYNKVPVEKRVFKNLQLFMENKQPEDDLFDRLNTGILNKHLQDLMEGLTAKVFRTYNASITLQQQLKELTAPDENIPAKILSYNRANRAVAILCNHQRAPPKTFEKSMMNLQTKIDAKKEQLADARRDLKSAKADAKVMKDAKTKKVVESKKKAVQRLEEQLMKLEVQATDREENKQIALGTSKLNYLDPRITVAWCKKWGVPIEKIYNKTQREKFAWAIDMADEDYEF
The assay is described as follows: Inhibitory activity against DNA topoisomerase I cleavage was determined at a concentration ranging up to 10 uM; ''+++'' indicates greater activity than the parent compound 25. Also noted: scale not given here.

The test system of a further assay is UACC-62. The assay is described as follows: Cytotoxicity against UACC-62 human melanoma cancer cell line was determined. The format is functional.
A further assay relates to SN12C. The assay can be described thus: Cytotoxicity against SN12C human renal cancer cell line was determined. The format is functional.
The subject of a further assay is OVCAR-3. The assay is described as follows: Cytotoxicity against OVCAR-3 human ovarian cancer cell line was determined. The format is functional.
For a further assay, the system named is HOP-62. The assay is described as follows: Cytotoxicity against HOP-62 human lung cancer cell line was determined. The format is functional.
A further assay concerns DU-145. The assay is described as follows: Cytotoxicity against DU-145 human prostate cancer cell line was determined. The format is functional.
The subject of the next assay is MDA-MB-435. The assay can be described thus: Cytotoxicity against MDA-MB-435 human breast cancer cell line was determined. Type of assay: functional.
For the next assay, the system named is SF-268. The assay can be described thus: Cytotoxicity against SF-268 human CNS cancer cell line was determined. The format is functional.
A further assay has as its system HCT-116. The assay is described as follows: Cytotoxicity against HCT116 human colon cancer cell line was determined. The format is functional.
Assay [2] has as its target T1, DNA topoisomerase 1 (Homo sapiens). The assay can be described thus: Inhibitory activity against DNA topoisomerase I cleavage was determined at a concentration ranging up to 10 uM; ''+/-'' No description in the article.
For assay [3] the target is unchanged. The assay is described as follows: Inhibitory activity against DNA topoisomerase I cleavage was determined at a concentration ranging up to 10uM; '+' indicates weak activity.
Assay [4] shares this target. The assay can be described thus: Inhibitory activity against DNA topoisomerase I cleavage was determined at a concentration ranging uM camptothecin.
Assay [5] shares this target. The assay can be described thus: Inhibitory activity against DNA topoisomerase I cleavage was determined at a concentration ranging up to 10 uM; NT- Not tested.
Assay [6] has the same target. The assay is described as follows: Inhibitory activity against DNA topoisomerase I cleavage was determined at a concentration ranging up to 10 uM.

With `CN1C(=O)c2cc([N+](=O)[O-])ccc2[C@H]2C(=O)c3cc4c(cc3[C@H]21)OCO4`, in [1], the Activity entry is “++”. For the same compound, the GI50 in the assay with UACC-62 came out at 26 nM; in the assay on SN12C, 33 nM; in the assay with OVCAR-3, 30 nM; in the assay with HOP-62, 158 nM; with DU-145 it was 50 nM; with MDA-MB-435, 107 nM. Further, the values for the GI50 with SF-268 and with HCT-116 were 24 nM and 14 nM, respectively.
As to `O=C1c2ccccc2-c2c1c1ccccc1c(=O)n2CCCBr`, the Activity entry in assay [2] is “+/-”. In the assay on SF-268, this compound displayed a GI50 of 4610 nM.
As for `[N-]=[N+]=NCCCn1c2c(c3ccc([N+](=O)[O-])cc3c1=O)C(=O)c1ccccc1-2`, the GI50 in the assay with UACC-62 is 44700 nM; in the assay on SN12C, 72400 nM; in the assay on HOP-62 it was greater than 100000 nM; with DU-145, greater than 100000 nM; in the assay with MDA-MB-435, greater than 100000 nM; in the assay on SF-268, 79400 nM. This compound registered a GI50 in the assay with HCT-116 of 8130 nM.
For the compound `COc1cc2c(cc1OC)[C@H]1C(=O)c3cc4c(cc3[C@H]1N(CCCBr)C2=O)OCO4`, the GI50 was determined as 50 nM in the assay with UACC-62; 30 nM in the assay with SN12C; 400 nM with OVCAR-3; 120 nM in the assay on HOP-62; 30 nM in the assay on DU-145; 150 nM with MDA-MB-435. This compound also returned a GI50 in the assay on HCT-116 of 70 nM. Also, the Activity entry in assay [3] is “weak activity”.
For the compound `NCCCn1c2c(c3ccccc3c1=O)C(=O)c1ccccc1-2`, in assay [1], the Activity result was “++”. The GI50 is 260 nM in the assay on UACC-62; 160 nM in the assay with SN12C; 1380 nM in the assay on OVCAR-3; 220 nM with DU-145; 780 nM in the assay on MDA-MB-435; 180 nM in the assay on HCT-116.
Regarding `O=C1c2cc3c(cc2[C@@H]2[C@H]1c1ccc([N+](=O)[O-])cc1C(=O)N2CCCBr)OCO3`, the concentration for 50% growth inhibition (GI50) with UACC-62, with SN12C, in the assay with OVCAR-3, with HOP-62, with DU-145 and with MDA-MB-435 was less than 10 nM throughout. Further, the GI50 in the assay with SF-268 and with HCT-116 was less than 10 nM throughout. Further, the Activity result in assay [3] is “weak activity”.
`O=C1c2cc3c(cc2-c2c1c1ccc([N+](=O)[O-])cc1c(=O)n2CCCCl)OCO3`: in assay [1], the Activity result is “++”. Moreover, the GI50 is 229 nM with UACC-62; 132 nM with SN12C; 9120 nM with OVCAR-3; 410 nM with HOP-62; 98 nM in the assay on DU-145; 1820 nM with MDA-MB-435. In addition, the GI50 amounted to 148 nM in the assay on SF-268 and 2400 nM in the assay on HCT-116.
On to `O=C1c2ccccc2-c2c1c1ccc([N+](=O)[O-])cc1c(=O)n2CCCCl`, for which the GI50 with UACC-62 was 20400 nM; with SN12C, 26900 nM; in the assay on OVCAR-3, 4900 nM; in the assay with HOP-62, 43700 nM; with DU-145 it was 40700 nM; in the assay on MDA-MB-435 it was 31600 nM. Also, the results for the GI50 in the assay on SF-268 and in the assay with HCT-116 were 23400 nM and 3630 nM, respectively.
In the case of `O=C1c2cc3c(cc2[C@@H]2[C@H]1c1ccc([N+](=O)[O-])cc1C(=O)N2CCCCl)OCO3`, the GI50 with UACC-62, with SN12C, in the assay with OVCAR-3, with HOP-62, in the assay with DU-145 and in the assay with MDA-MB-435 was less than 10 nM throughout. In addition, the GI50 in the assay on SF-268 and with HCT-116 was less than 10 nM throughout. Also, in assay [3], the Activity result is “weak activity”.
For the compound `NCCCn1c2c(c3ccccc3c1=O)C(=O)c1cc3c(cc1-2)OCO3`, the Activity result in [3] is “weak activity”.
As for `NCCCn1c2c(c3ccc([N+](=O)[O-])cc3c1=O)C(=O)c1ccccc1-2`, the GI50 in the assay with UACC-62 turned out to be 372 nM; in the assay on SN12C, 102 nM; in the assay with HOP-62 it was 275 nM; in the assay with DU-145, 148 nM; with SF-268, 302 nM; with HCT-116 it was 85 nM.
Consider `COc1cc2c3c(n(CCCN)c(=O)c2cc1OC)-c1cc2c(cc1C3=O)OCO2`, for which the Activity entry in assay [1] was “++”.
In the case of `[N-]=[N+]=NCCCn1c2c(c3ccc([N+](=O)[O-])cc3c1=O)C(=O)c1cc3c(cc1-2)OCO3`, the GI50 with UACC-62, in the assay with SN12C, in the assay on OVCAR-3, in the assay with HOP-62, in the assay on DU-145 and with MDA-MB-435 was less than 10 nM throughout. Further, the GI50 in the assay with SF-268 and in the assay on HCT-116 was less than 10 nM throughout. Also, in assay [4], the Activity entry was “+++”.
With `O=C1c2ccccc2-c2c1c1ccc([N+](=O)[O-])cc1c(=O)n2CCCBr`, the Activity in assay [5] was found to be 0. The GI50 with UACC-62, in the assay on SN12C, with OVCAR-3, in the assay with DU-145, in the assay with MDA-MB-435 and in the assay with SF-268 was greater than 100000 nM throughout. For the same compound, the GI50 in the assay on HCT-116 amounted to 3450 nM.
With `Nc1ccc2c3c(n(CCCCl)c(=O)c2c1)-c1cc2c(cc1C3=O)OCO2`, the GI50 in the assay on UACC-62, in the assay on SN12C, in the assay on OVCAR-3, with MDA-MB-435 and in the assay on SF-268 was greater than 100000 nM in each case. Further, the Activity in assay [6] amounted to 0.
`NCCCn1c2c(c3ccc([N+](=O)[O-])cc3c1=O)C(=O)c1cc3c(cc1-2)OCO3`: the GI50 in the assay with UACC-62 was 17 nM; in the assay with SN12C, less than 10 nM; in the assay with OVCAR-3 it was 302 nM; in the assay with HOP-62 it was less than 10 nM; in the assay on DU-145, less than 10 nM; with MDA-MB-435, 25 nM. Also, the GI50 in the assay on SF-268 and in the assay with HCT-116 was less than 10 nM in each case. For the same compound, the Activity entry in [4] was “+++”.
Consider `[N-]=[N+]=NCCCn1c2c(c3ccccc3c1=O)C(=O)c1ccccc1-2`, for which the GI50 in the assay on UACC-62 was 19500 nM; in the assay on SN12C, 25100 nM; with OVCAR-3 it was 7940 nM; with HOP-62, 7590 nM; with DU-145, 44700 nM; with MDA-MB-435 it was 7760 nM. In the assay on HCT-116, this compound yielded a GI50 of 4900 nM.
For the compound `COc1cc2c3c(n(C)c(=O)c2cc1OC)-c1cc2c(cc1C3=O)OCO2`, the GI50 in the assay on UACC-62 came to 4200 nM; in the assay on SN12C, 68000 nM; in the assay on HOP-62 it was 1300 nM; with DU-145, 37000 nM; with MDA-MB-435, 96000 nM; in the assay with HCT-116, 35000 nM.

What is called GI50 is the concentration giving 50% growth inhibition.
